The results in this text go back to patent publication US6465491B2, “6-phenylpyridyl-2-amine derivatives” (Pfizer Inc., priority 1996, dated 2002).

The melting point is the temperature, or range, at which the solid turns liquid.

SMILES strings stand for the structures. Counter-ions that a name gives are not always drawn.

`Nc1cccc(-c2ccc(CCN3CCN(CCCc4ccccc4)CC3)cc2)n1` (as salt: hydrochloride) [Example 40, 6-(4-{2-[4-(3-Phenyl-propyl)-piperazin-1-yl]-ethyl}-phenyl)-pyridin-2-ylamine] yielded a melting point of 258 to 264 °C.

In the case of `Nc1cccc(-c2ccc(CCN3CCC(N)(C(=O)NCCc4ccccc4)CC3)cc2)n1` (as salt: hydrochloride) [Example 79, 4-Amino-1-{2-[4-(6-amino-pyridin-2-yl)-phenyl]-ethyl}-piperidine-4-carboxylic acid phenethyl-amide], the melting point is 215 to 219 °C (dec.).

For `Nc1cccc(-c2ccc(CCCN3CCN(CCc4ccccc4)CC3)cc2)n1` (as salt: hydrochloride) [Example 129, 6-{4-[3-(4-Phenethyl-piperazin-1-yl)-propyl]-phenyl}-pyridin-2-ylamine], the melting point lay within 125 to 140 °C.

As for `Nc1cccc(-c2ccc(CCN3CCC(NC(=O)Cc4ccc(F)cc4)C3)cc2)n1` (centres unmarked) [Example 56, N-(1-{2-[4-(6-Amino-pyridin-2-yl)-phenyl]-ethyl}-pyrrolidin-3-yl)-2-(4-fluoro-phenyl)-acetamide], the melting point was 90 °C (dec.).

In turn, `Nc1cccc(-c2ccc(CCN3CC4C(C3)C4NC(=O)Cc3ccc(F)cc3)cc2)n1` (centres unmarked) [Example 38, N-(3-{2-[4-(6-Amino-pyridin-2-yl)-phenyl]-ethyl}-3-aza-bicyclo[3.1.0]hex-6-yl)-2-(4-fluoro-phenyl)-acetamide] had a melting point of 161 to 163 °C.

Compound `Nc1cccc(-c2ccc(CCN3CCN(C(=O)C4CCCC4)CC3)cc2)n1` [Example 13, (4-{2-[4-(6-Amino-pyridin-2-yl)-phenyl]-ethyl}-piperazin-1-yl)-cyclopentyl-methanone] yielded a melting point of 185 to 187 °C.

On to `Nc1cccc(-c2ccc(CCNC3CC4COCC(C3)N4)cc2)n1` (centres unmarked) (as salt: hydrochloride) [104], for which the melting point is 100 °C (dec.).

`CN(Cc1ccc(-c2cccc(N)n2)cc1)C1CCCCC1` (as salt: hydrochloride) [Example 136, 6-{4-[(Cyclohexyl-methyl-amino)-methyl]-phenyl}-pyridin-2-ylamine]: the melting point was more than 250 °C.

In turn, `Nc1cccc(-c2ccc(CCN3C4CCC3CC(N)C4)cc2)n1` (centres unmarked) (as salt: hydrochloride) yielded a melting point of more than 300 °C.

Turning to `Cl.Nc1cccc(-c2ccc(CCN3CC4C(C3)C4NCCCc3ccccc3)cc2)n1` (centres unmarked), the melting point was in the range of 160 to 163 °C.

For `Nc1cccc(-c2ccc(CCNC3CC4CCC(C3)N4Cc3ccccc3)cc2)n1` (centres unmarked) (as salt: hydrochloride), the melting point was 260 °C (dec.).

`Nc1cccc(-c2ccc(CCN3CCC(NC(=O)Nc4ccccc4)C3)cc2)n1` (centres unmarked) (as salt: hydrochloride) [Example 72, 1-(1-{2-[4-(6-Amino-pyridin-2-yl)-phenyl]-ethyl}-pyrrolidin-3-yl)-3-phenyl-urea]: the melting point was 130 °C (dec.).

The compound `Nc1cccc(-c2ccc(CCN3Cc4ccccc4C3)cc2)n1` [Example 22, 6-{4-[2-(1,3-Dihydro-isoindol-2-yl)-ethyl]-phenyl}-pyridin-2-ylamine] gave a melting point of 140 to 143 °C.

`Nc1cccc(-c2ccc(CCN3CCN(c4nnnn4-c4ccccc4)CC3)cc2)n1` [Example 27, 6-(4-{2-[4-(1 -Phenyl-1H-tetrazol-5-yl)-piperazin-1-yl]-ethyl}-phenyl)-pyridin-2-ylamine] showed a melting point of 212 to 214 °C.

With `Nc1cccc(-c2ccc(CCN3CCc4ccccc4C3)cc2)n1` [Example 6, 6-{4-[2-(3,4-Dihydro-1H-isoquinolin-2-yl)-ethyl]-phenyl}-pyridin-2-ylamine], the melting point was in the range of 130 to 132 °C.

`Nc1cccc(-c2ccc(CCN3CCN(C(=O)c4ccccc4)CC3)cc2)n1` [Example 25, (4-{2-[4-(6-Amino-pyridin-2-yl)-phenyl]-ethyl}-piperazin-1-yl)-phenyl-methanone] gave a melting point of 125 to 127 °C.

Regarding `Nc1cccc(-c2ccc(CCN3CCN(C(=O)Cc4ccccc4)CC3)cc2)n1`, the melting point is 135 to 137 °C.
